# Source: ChEMBL document CHEMBL1129749, “Nudicauline and elatine as potent norditerpenoid ligands at rat neuronal alpha-bungarotoxin binding sites: importance of the 2-(methylsuccinimido)benzoyl moiety for neuronal nicotinic acetylcholine receptor binding” (J Med Chem, 1996)
# Target: Neuronal acetylcholine receptor subunit alpha-7 (Rattus norvegicus, UniProt Q05941)
# Test: Binding affinity of Norditerpenoid Alkaloids at rat neuronal alpha7-type nicotinic acetylcholine receptor
# Chain of Neuronal acetylcholine receptor subunit alpha-7 (Q05941 whole entry): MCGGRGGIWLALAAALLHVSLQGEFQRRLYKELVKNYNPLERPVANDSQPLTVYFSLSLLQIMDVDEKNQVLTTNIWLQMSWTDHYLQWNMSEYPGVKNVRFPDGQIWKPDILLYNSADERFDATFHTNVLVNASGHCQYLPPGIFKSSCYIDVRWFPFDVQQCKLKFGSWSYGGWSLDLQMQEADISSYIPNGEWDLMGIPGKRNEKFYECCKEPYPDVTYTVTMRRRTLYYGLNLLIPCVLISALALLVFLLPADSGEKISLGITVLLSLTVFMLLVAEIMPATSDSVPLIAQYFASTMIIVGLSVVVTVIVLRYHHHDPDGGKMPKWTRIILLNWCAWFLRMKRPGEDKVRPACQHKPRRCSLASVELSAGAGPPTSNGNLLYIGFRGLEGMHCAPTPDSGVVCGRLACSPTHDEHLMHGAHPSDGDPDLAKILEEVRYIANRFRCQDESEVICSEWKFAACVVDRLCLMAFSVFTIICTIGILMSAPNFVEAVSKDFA
row,SMILES,IC50 [µM]
1,CCN1C[C@]2(OC(=O)c3ccccc3N)CC[C@H](OC)[C@]34C1[C@@H](CC23)[C@@]1(O)C[C@H](OC)[C@H]2CC4[C@]1(O)[C@H]2OC (some centres undefined),6.8
2,CCN1C[C@]2(COC)CC[C@H](OC)[C@]34C5C[C@@H]6[C@@H](OC)C[C@@]7(OCO[C@@]7(C13)[C@@H](O)C24)C5[C@H]6OC (some centres undefined) [DELCORINE],53
3,CCN1C[C@]2(COC(=O)c3ccccc3N3C(=O)C[C@H](C)C3=O)CC[C@H](OC)[C@@]34C1[C@@]1(OCO[C@@]15C[C@H](OC)[C@H]1C[C@@H]3[C@@H]5[C@H]1OC)[C@@H](OC)[C@H]24 [ELATINE],0.0061
4,CCN1C[C@]2(COC)CC[C@H](O)[C@]34C1[C@@](O)([C@@H](OC)[C@H]23)[C@@]1(O)C[C@H](OC)[C@H]2C[C@@H]4[C@@H]1[C@H]2OC [DELSOLINE],19
5,CCN1C[C@]2(CO)CC[C@H](OC)[C@@]34[C@@H]5C[C@H]6[C@H](OC)[C@@H]5[C@](O)(C[C@@H]6OC)[C@](O)([C@@H](OC)[C@H]23)[C@@H]14 [LYCOCTONINE],10
6,CCN1C[C@]2(C)CC[C@H](OC)[C@@]34C1[C@]1(OCO[C@@]15C[C@H](OC)[C@H]1C[C@]3(O)[C@@H]5[C@H]1OC)[C@@H](OC(C)=O)[C@H]24 [DELTALINE],110
7,CCN1C[C@]2(COC(=O)c3ccccc3N3C(=O)C[C@H](C)C3=O)CC[C@H](OC)[C@]34C5C[C@@H]6[C@@H](OC)C[C@@](O)(C5[C@H]6OC(C)=O)[C@](O)(C13)[C@@H](OC)C24 (some centres undefined) [NUDICAULINE],0.0017
8,CCN1C[C@]2(OC(=O)c3ccccc3NC(C)=O)CC[C@H](OC)[C@@]34[C@@H]2C[C@@H]([C@@H]13)[C@@]1(O)C[C@H](OC)[C@H]2C[C@@H]4[C@]1(O)[C@H]2OC,96
9,CCN1C[C@]2(COC)CC[C@H](O)[C@@]34C5C[C@@H]6[C@@H](OC)C[C@](O)(C(CC23)C14)C5[C@H]6OC(C)=O (some centres undefined) [CONDELPHINE],1.6
